Experiment [1] addresses DNA polymerase beta (Homo sapiens) (UniProt P06746). The experiment can be described thus: Binding affinity to human DNA polymerase beta with homo-lysine modification at 72 assessed as inhibition of dRP excision in presence of 32P-end labelled duplex DNA at 25 uM by SDS PAGE.
The target is the same in experiment [2]. The experiment can be described thus: Binding affinity to human DNA polymerase beta with methyl-lysine modification at 72 assessed as inhibition of dRP excision in presence of 32P-end labelled duplex DNA at 25 uM by SDS PAGE.
Experiment [3] shares this target. The experiment can be described thus: Binding affinity to wild type human DNA polymerase beta assessed as inhibition of dRP excision in presence of 32P-end labelled duplex DNA at 25 uM by SDS PAGE analysis.
The target in experiment [4] is DNA polymerase beta (Rattus norvegicus) (UniProt P06766). The experiment can be described thus: Binding affinity to rat DNA polymerase beta with homo-lysine modification at 72 assessed as inhibition of dRP excision in presence of 32P-end labelled duplex DNA at 50 uM by SDS PAGE.
For experiment [5] the target is unchanged. The experiment can be described thus: Binding affinity to rat DNA polymerase beta with methyl-lysine modification at 72 assessed as inhibition of dRP excision in presence of 32P-end labelled duplex DNA at 50 uM by SDS PAGE.
For experiment [6] the target is unchanged. The experiment can be described thus: Binding affinity to wild type rat DNA polymerase beta assessed as inhibition of dRP excision in presence of 32P-end labelled duplex DNA at 50 uM by SDS PAGE analysis.
Experiment [7] has the same target. The experiment can be described thus: Binding affinity to wild type rat DNA polymerase beta assessed as inhibition of dRP excision in presence of 32P-end labelled duplex DNA at 10 uM by SDS PAGE analysis.
The target is the same in experiment [8]. The experiment can be described thus: Binding affinity to rat DNA polymerase beta with methyl-lysine modification at 72 assessed as inhibition of dRP excision in presence of 32P-end labelled duplex DNA at 10 uM by SDS PAGE.
Experiment [9] has the same target. The experiment can be described thus: Binding affinity to rat DNA polymerase beta with homo-lysine modification at 72 assessed as inhibition of dRP excision in presence of 32P-end labelled duplex DNA at 10 uM by SDS PAGE.
Experiment [10] shares this target. The experiment can be described thus: Binding affinity to wild type rat DNA polymerase beta assessed as inhibition of dRP excision in presence of 32P-end labelled duplex DNA at 25 uM by SDS PAGE analysis.
For experiment [11] the target is unchanged. The experiment can be described thus: Binding affinity to rat DNA polymerase beta with methyl-lysine modification at 72 assessed as inhibition of dRP excision in presence of 32P-end labelled duplex DNA at 25 uM by SDS PAGE.
For experiment [12] the target is unchanged. The experiment can be described thus: Binding affinity to rat DNA polymerase beta with homo-lysine modification at 72 assessed as inhibition of dRP excision in presence of 32P-end labelled duplex DNA at 25 uM by SDS PAGE.

These results are taken from ChEMBL document CHEMBL4665737, “An assay for DNA polymerase β lyase inhibitors that engage the catalytic nucleophile for binding” (Bioorg Med Chem, 2020).

In general, inhibition refers to the relative decrease from the control value, in per cent.

SMILES strings stand for the structures. Calls of active or inactive are those of the source. The calls are words filed in the database; no cut-off is given here.

With `O=C(O)c1ccc(O)c(O)c1`, the inhibition entry in experiment [1], in [2] and in experiment [3] was “Active” in each case. Further, the inhibition in [4] was found to be 25%; in [5] it was 50%; in experiment [6], 50%.

As to `CCCCCCCCC(O)C(O)CCCCCCCC(=O)O` (racemic), the inhibition result in experiment [7], in experiment [8] and in [9] was “Active” each time.

Regarding `CCCCCCCC[C@H]1O[C@H]1CCCCCCCC(=O)O` (racemic), the inhibition entry in [10], in experiment [5], in experiment [6] and in experiment [11] was “Active” each time. Also, the inhibition entry in experiment [4] and in [12] was “inactive” throughout.

As for `CC[C@H](CC[C@@H](C)[C@H]1CC[C@H]2[C@@H]3CCC4C[C@@H](OC(=O)c5ccccc5)CC[C@]4(C)[C@H]3CC[C@]12C)C(C)C` (some centres not stated), the inhibition result in [1], in [2], in experiment [3], in [4], in experiment [5] and in experiment [6] was “Active” throughout.

For `CC[C@H](/C=C/[C@@H](C)[C@H]1CC[C@H]2[C@@H]3CC=C4C[C@@H](O)CC[C@]4(C)[C@H]3CC[C@]12C)C(C)C`, the inhibition entry in experiment [1], in experiment [2], in [3], in experiment [4], in experiment [5] and in experiment [6] was “Active” each time.
